Measurements taken from US20090176817A1, “Method of Treatment of Diarrhea-Predominant Irritable Bowel Syndrome in a Subject” (priority 2005, published 2009).

Tested on: diarrhea-predominant IBS subjects
Test: Study S241.3.011: weekly diary questions on adequate relief
Assay type: in vivo, human
Conditions: 2 mg TID, ITT; for Number of subjects who were responders during the three-month treatment period: Adequate relief of IBS symptoms / Number of subjects who were responders during the three-month treatment period: Adequate relief of abdominal pain/discomfort / Number of subjects who were responders during the three-month treatment period: Adequate relief of abnormal bowel habits: observed case
Description: Study S241.3.011 was a Phase III, double-blind, placebo-controlled, randomized, multinational study to investigate the safety and efficacy of 2 mg TID of cilansetron for a period of 12 weeks followed by a rerandomized, placebo-controlled four-week treatment period, in diarrhea-predominant IBS subjects. The study was conducted in six countries including the US. A total of 2115 subjects consented to participate, and 770 subjects were randomized. A total of 746 subjects were analyzed for efficacy and 755 subjects were analyzed for safety. Diagnosis and main criteria for inclusion were IBS subjects satisfying the Rome I criteria (1992); the diarrhea predominant sub-population of the Rome II criteria; and a minimum abdominal pain/discomfort, stool frequency and consistency determined during the run-in period. Subjects were treated with cilansetron 2 mg tablets given orally TID or matching placebo tablets given orally TID for 12 weeks followed by a rerandomized, placebo-controlled four-week treatment period.
The primary efficacy parameter was the number of months that a subject was a responder for IBS symptoms (abdominal pain, abdominal discomfort, abnormal bowel habits) over the 12-week treatment period. A responder for a month (monthly responder) was defined as a subject who answered the weekly question with “yes” at least twice for that month. The two main secondary efficacy parameters were the monthly responder rates based on the “adequate relief” questions regarding abdominal pain/discomfort and abnormal bowel habits during the 12-week treatment period. The overall response rate and responder rate for the weekly diary questions on adequate relief at each month and all months, the adequate relief rate, the number of subjects with adequate relief by week, daily diary questions, IBS-QOL scores, and the interruption of activities were also assessed. Safety was evaluated by physical examination, ECG, vital signs, laboratory evaluations, concomitant medications, and AEs.
Subjects who were initially randomized to the cilansetron 2 mg TID group and rerandomized to placebo, will be referred to as the C/P treatment group; subjects initially randomized to the placebo group and rerandomized to placebo will be referred to as the P/P treatment group; the P/C and C/C treatment group nomenclature follow the same principle. Of the 591 subjects who completed the three-month treatment period, 576 subjects were rerandomized and thus divided into the following treatment groups: 150 subjects in the C/C treatment group, 140 subjects in the C/P treatment group, 136 subjects in the P/C treatment group, and 150 subjects in the P/P treatment group. Of the 576 subjects rerandomized, a higher percentage of subjects in the C/C treatment group (99%) completed the study compared with the C/P (95%), P/C (93%), and the P/P (95%) treatment groups.
Studies S24 1.3.OO6, S24 1.3.0 1 1, and S24 1.3.009 used the following efficacy measurements: • The subjects answered the following three questions with “yes” or “no” using a phone diary at the end of each week: • a) During the last week, did you experience adequate relief of your IBS symptoms, such as abdominal pain, abdominal discomfort, abnormal bowel habits? • b) During the last week, did you experience adequate relief of your abdominal pain and/or discomfort? • c) During the last week, did you experience adequate relief of your abnormal bowel habits? • The subjects rated the following symptoms using the phone diary at the end of each day: • abdominal pain/discomfort (five-point scale); • stool consistency (seven-point Bristol Stool Scale); • stool frequency (number of bowel movements each day); • urgency (five-point scale); • straining (yes or no); • feeling of incomplete defecation (yes or no); • bloating or feeling of abdominal distension (five-point scale). • In Studies S241 A006 and S241.3.009, subjects completed the IBS-QOL Survey at Baseline (Day 1) and at the end of treatment. […]

[1] = Duration of IBS: >24 months to ≦48 months, monthly LOCF imputation
[2] = Duration of IBS: >24 months to ≦48 months
[3] = Duration of IBS: >48 months to ≦120 months, monthly LOCF imputation
[4] = Duration of IBS: >48 months to ≦120 months
[5] = Duration of IBS: >120 months, monthly LOCF imputation
[6] = Duration of IBS: ≦24 months, monthly LOCF imputation
[7] = Female subjects, three-month treatment period, monthly LOCF

Q: Which results are given for `Cc1nccn1C[C@H]1CCc2c(c3cccc4c3n2CCC4)C1=O` [Cilansetron, (R)-(−)-4,5,6,8,9,10-hexahydro-10-[(2-methyl-1H-imidazol-1-yl)methyl]-11H-pyrido-[3,2,1-jk]-carbazol-11-one]?
A: Number of months a subject was a responder during the three-month treatment period: Abnormal bowel habits, Two months [1]: 10 (14) n (%); Number of months a subject was a responder during the three-month treatment period: Abnormal bowel habits, Zero months [1]: 20 (28) n (%); Number of months a subject was a responder during the three-month treatment period: IBS symptoms, One month [1]: 7 (10) n (%); Number of months a subject was a responder during the three-month treatment period: IBS symptoms, Three months [1]: 32 (44) n (%); Number of months a subject was a responder during the three-month treatment period: IBS symptoms, Two months [1]: 16 (22) n (%); Number of months a subject was a responder during the three-month treatment period: IBS symptoms, Zero months [1]: 17 (24) n (%); Number of subjects who were responders during the three-month treatment period: Adequate relief of IBS symptoms [2]: 44 (61) n (%); Number of subjects who were responders during the three-month treatment period: Adequate relief of abdominal pain/discomfort [2]: 44 (61) n (%); Number of subjects who were responders during the three-month treatment period: Adequate relief of abnormal bowel habits [2]: 43 (60) n (%); Number of months a subject was a responder during the three-month treatment period: Abdominal pain/discomfort, One month [3]: 15 (11) n (%); Number of months a subject was a responder during the three-month treatment period: Abdominal pain/discomfort, Three months [3]: 61 (46) n (%); Number of months a subject was a responder during the three-month treatment period: Abdominal pain/discomfort, Two months [3]: 23 (17) n (%); Number of months a subject was a responder during the three-month treatment period: Abdominal pain/discomfort, Zero months [3]: 34 (26) n (%); Number of months a subject was a responder during the three-month treatment period: Abnormal bowel habits, One month [3]: 15 (11) n (%); Number of months a subject was a responder during the three-month treatment period: Abnormal bowel habits, Three months [3]: 50 (38) n (%); Number of months a subject was a responder during the three-month treatment period: Abnormal bowel habits, Two months [3]: 29 (22) n (%); Number of months a subject was a responder during the three-month treatment period: Abnormal bowel habits, Zero months [3]: 39 (29) n (%); Number of months a subject was a responder during the three-month treatment period: IBS symptoms, One month [3]: 19 (14) n (%); Number of months a subject was a responder during the three-month treatment period: IBS symptoms, Three months [3]: 50 (38) n (%); Number of months a subject was a responder during the three-month treatment period: IBS symptoms, Two months [3]: 26 (20) n (%); Number of months a subject was a responder during the three-month treatment period: IBS symptoms, Zero months [3]: 38 (29) n (%); Number of subjects who were responders during the three-month treatment period: Adequate relief of IBS symptoms [4]: 69 (52) n (%); Number of subjects who were responders during the three-month treatment period: Adequate relief of abdominal pain/discomfort [4]: 79 (59) n (%); Number of subjects who were responders during the three-month treatment period: Adequate relief of abnormal bowel habits [4]: 69 (52) n (%); Number of months a subject was a responder during the three-month treatment period: Abdominal paint/discomfort, One month [5]: 13 (13) n (%); Number of months a subject was a responder during the three-month treatment period: Abdominal paint/discomfort, Three months [5]: 39 (38) n (%); Number of months a subject was a responder during the three-month treatment period: Abdominal paint/discomfort, Two months [5]: 18 (18) n (%); Number of months a subject was a responder during the three-month treatment period: Abdominal paint/discomfort, Zero months [5]: 32 (31) n (%); Number of months a subject was a responder during the three-month treatment period: Abnormal bowel habits, One month [5]: 17 (17) n (%); Number of months a subject was a responder during the three-month treatment period: Abnormal bowel habits, Three months [5]: 37 (36) n (%); Number of months a subject was a responder during the three-month treatment period: Abnormal bowel habits, Two months [5]: 12 (12) n (%); Number of months a subject was a responder during the three-month treatment period: Abnormal bowel habits, Zero months [5]: 36 (35) n (%); Number of months a subject was a responder during the three-month treatment period: IBS symptoms, One month [5]: 17 (17) n (%); Number of months a subject was a responder during the three-month treatment period: IBS symptoms, Three months [5]: 38 (37) n (%); Number of months a subject was a responder during the three-month treatment period: IBS symptoms, Two months [5]: 12 (12) n (%); Number of months a subject was a responder during the three-month treatment period: IBS symptoms, Zero months [5]: 35 (34) n (%); Number of subjects who were responders during the three-month treatment period: Adequate relief of IBS symptoms (Duration of IBS: >120 months): 48 (47) n (%); Number of subjects who were responders during the three-month treatment period: Adequate relief of abdominal pain/discomfort (Duration of IBS: >120 months): 55 (54) n (%); Number of subjects who were responders during the three-month treatment period: Adequate relief of abnormal bowel habits (Duration of IBS: >120 months): 46 (45) n (%); Number of months a subject was a responder during the three-month treatment period: Abdominal pain/discomfort, One month [6]: 7 (10) n (%); Number of months a subject was a responder during the three-month treatment period: Abdominal pain/discomfort, Three months [6]: 27 (39) n (%); Number of months a subject was a responder during the three-month treatment period: Abdominal pain/discomfort, Two months [6]: 16 (23) n (%); Number of months a subject was a responder during the three-month treatment period: Abdominal pain/discomfort, Zero months [6]: 20 (29) n (%); Number of months a subject was a responder during the three-month treatment period: Abnormal bowel habits, One month [6]: 8 (11) n (%); Number of months a subject was a responder during the three-month treatment period: Abnormal bowel habits, Three months [6]: 30 (43) n (%); Number of months a subject was a responder during the three-month treatment period: Abnormal bowel habits, Two months [6]: 15 (21) n (%); Number of months a subject was a responder during the three-month treatment period: Abnormal bowel habits, Zero months [6]: 17 (24) n (%); Number of months a subject was a responder during the three-month treatment period: IBS symptoms, One month [6]: 11 (16) n (%); Number of months a subject was a responder during the three-month treatment period: IBS symptoms, Three months [6]: 28 (40) n (%); Number of months a subject was a responder during the three-month treatment period: IBS symptoms, Two months [6]: 16 (23) n (%); Number of months a subject was a responder during the three-month treatment period: IBS symptoms, Zero months [6]: 15 (21) n (%); Number of subjects who were responders during the three-month treatment period: Adequate relief of IBS symptoms (Duration of IBS: ≦24 months): 45 (64) n (%); Number of subjects who were responders during the three-month treatment period: Adequate relief of abdominal pain/discomfort (Duration of IBS: ≦24 months): 43 (61) n (%); Number of subjects who were responders during the three-month treatment period: Adequate relief of abnormal bowel habits (Duration of IBS: ≦24 months): 45 (64) n (%); Number of months a subject was a responder: One month (Abdominal pain/discomfort) [7]: 30 (11) n (%); Number of months a subject was a responder: One month (Abnormal bowel habits) [7]: 34 (13) n (%); Number of months a subject was a responder: One month (IBS symptoms) [7]: 35 (13) n (%); Number of months a subject was a responder: Three months (Abdominal pain/discomfort) [7]: 101 (39) n (%)
